# Results as given in article PMC8505397, “Development of peptides targeting receptor binding site of the envelope glycoprotein to contain the West Nile virus infection” (Scientific Reports, 2021).
# “And” between values parts separate entries of the source, which are not always exact repeats. Identical values can stand only once. Like-named read-outs stand apart in the source and are kept apart here.
# Tests used:
# [1] = tested on: WNV virus like particles (VLP) that possess C, M, and E proteins; details: for luciferase luminescence, original data (single wells, duplicates): Avg.VC 555022 / Avg.CC 1551.33 (plate 1), 522383 / 1614.33 (plate 2)
# [2] = tested on: adhesion of rDIII on cultured hBMECs; test: Blocking of adhesion of rDIII on cultured hBMECs by peptides (immunocytochemistry); assay type: cell-based, human; details: 5 µg (0.39 nM) rDIII pre-blocked with tenfold molar excess (3.9 nM) of peptide
# Protocol: Cells were cultured as described in Supplementary Method S1. First, concentration-dependent immunocytochemistry was performed to reveal the minimum concentration of rDIII required to detect its adhesion to the endothelial cells. Details are presented in Supplementary Method S14.
# After that, the ability of peptides to block the adhesion of rDIII to the culture of hBMECs was judged. A tenfold molar excess of each peptide was incubated with rDIII for 1 h at room temperature. Pre-incubated rDIII was subsequently used in the assay. Details are described in the Supplementary Method S14. […]
# Blocking of adhesion of rDIII on cultured hBMECs by peptides (immunocytochemistry). First, different concentrations of rDIII were tested to get the minimum concentration of rDIII required to detect the adhesion of the domain to the cultured hBMECs. In short, hBMECs were cultured on collagen type I (Sigma) coated coverslips in a 12-well culture plate in EBM-2 medium (Lonza) as was described in Supplementary Method S1 until 70% confluency. Cells were washed 2 times with PBS (pH 7.4) and fixed with acetone/ethanol (8:2 [v/v]) for 10 min at 4°C. Cells were washed 3 times with PBS (pH 7.4) and incubated with rDIII at different concentrations (20 µg, 15 µg, 10 µg, 5 µg, 2.5 µg, 2 µg, and 1 µg) diluted in 1 mL of PBS (pH 7.4) for 1 h at room temperature with gentle shaking. […]
smiles,measurement,setting,value
"CC[C@H](C)[C@@H]1NC(=O)[C@@H](NC(=O)[C@H](C)N)CSSC[C@@H](C(=O)NCC(=O)NCC(=O)NCC(=O)N[C@@H](CO)C(=O)O)NC(=O)[C@H](C)NC(=O)[C@H](CCCNC(=N)N)NC(=O)[C@H]([C@@H](C)O)NC(=O)[C@H](CO)NC(=O)[C@H](CO)NC(=O)[C@H](Cc2c[nH]cn2)NC1=O [CP4, CIHSSTRAC]",EC50,[1]; 48 h,17 nM
same,EC50 (neutralization of VLP) as concentration,[1]; 48 h,0.1194 µg/mL
same,"luciferase luminescence, original data (single wells, duplicates)",[1]; dilution 90,125654 and 100462
same,Avg. inhibition of VLP infection,"[1]; dilution of peptide 30, 666 nanograms of peptide / well",95%
same,Avg. inhibition of VLP infection,"[1]; dilution of peptide 90, 222 nanograms of peptide / well",80%
same,Avg. inhibition of VLP infection,"[1]; dilution of peptide 270, 74 nanograms of peptide / well",74%
same,Avg. inhibition of VLP infection,"[1]; dilution of peptide 810, 24.7 nanograms of peptide / well",57%
same,Avg. inhibition of VLP infection,"[1]; dilution of peptide 2430, 8.2 nanograms of peptide / well",33%
same,Avg. inhibition of VLP infection,"[1]; dilution of peptide 7290, 2.7 nanograms of peptide / well",20%
same,"luciferase luminescence, original data (single wells, duplicates)","[1]; listed as B, dilution 30",31234 and 31350
same,"luciferase luminescence, original data (single wells, duplicates)","[1]; listed as D, dilution 270",151785 and 142766
same,"luciferase luminescence, original data (single wells, duplicates)","[1]; listed as E, dilution 810",243092 and 236564
same,"luciferase luminescence, original data (single wells, duplicates)","[1]; listed as F, dilution 2430",368265 and 376779
same,"luciferase luminescence, original data (single wells, duplicates)","[1]; listed as G, dilution 7290",424174 and 466082
same,half maximal effective concentration in nanograms/ml,[1]; sigmoidal 4PL interpolation from EC50 dilution,119.48 nanograms/ml
same,half maximal effective concentration in nanograms/well (150 ul),"[1]; well volume 150 ul, sigmoidal 4PL interpolation from EC50 dilution",17.94 nanograms/well
same,inhibition of the adhesion of rDIII on endothelial cells (immunocytochemistry),[2],able to inhibit the adhesion of rDIII on the endothelial cells
